Experimental data as given in patent US20030187035A1, “Substituted hydrazones as inhibitors of cyclooxygenase-2” (priority 2001, published 2003).

Key:
DLD-1 cells = assay: Soft agar assay, anchorage-independent colony growth; type: cell-based; details: DLD-1 human colorectal carcinoma cells in soft agar, three weeks
Method: The Example 2, 3, 4 and 9 compounds were compared to the COX-2 inhibitor celecoxib in inhibiting the growth of DLD-1 cells in soft agar. DLD-1 cells are human colorectal carcinoma cells that overexpress COX-2. DLD-1 cells grow in soft agar and form tumors in nude mice. The soft agar assay was performed as follows. Bottom agar was first prepared as a 3 mL layer of 0.8% noble agar prepared in complete growth medium (DMEM containing 10% FBS and 500 units of penicillin-streptomycin) and placed into 60 mm^2 tissue culture dishes. The tumor cells were trypsinized from normal growth flasks while in exponential growth. The cells were counted by using a hemacytometer and 5.0×10^4 viable cells were mixed with 0.4% noble agar containing growth medium and various concentrations of drugs. Non-treated control plates received DMSO alone. Each drug concentration was run in duplicate. The concentration range was normally between 10 μM to 75 μM. The plates were incubated at 37° C. under 95% humidity for three weeks and stained with a 0.05% (w/v) nitroblue tetrazolium solution. This solution will only stain viable cells so that all growing cell in the form of colonies will appear blue. The plates were photographed using an Olympus stereoscope mounted with a SONY digital camera system.

[1] = Bioavailability assay, plasma drug concentration after intraperitoneal injection; type: in vivo; details: mice; for concentration at 120 min: mouse, plasma, ip, 120 minutes post injection
Method: The bioavailability of compound of Example 4 was examined as follows. Mice received a single dose (25 or 50 mg/kg) of compound suspended in DMSO via intraperitoneal injection. Plasma drug concentration was measured 120 minutes post injection.

mice = assay: In vivo toxicity assay, survival after intraperitoneal dosing; details: survival at seven days
Method: The compound of Example 4 was examined for in vivo toxicity in mice. Mice received intraperitoneal doses of compound suspended in DMSO, ranging from 25 to 400 mg/kg. Survival at seven days was determined.

DLD-1 = assay: In vitro cytotoxicity assay (trypan exclusion, viable cell count); type: cell-based; details: DLD-1 human colo-rectal carcinoma, 96 hours
Method: (§1) The human colo-rectal carcinoma cell lines DLD-1, HT29, and HCT 116, and the human prostate carcinoma cell line DU145, were grown exponentially and plated onto 6 well dishes at a cell density of 1.0×10^5 cells per 35 mm well. Various concentration of 4-bromobenzaldehyde-4-sulfamylphenylhydrazone (Ex. 4) or DMSO were added 24 hours later. The number of viable cells were determined at each concentration tested 96 hours later by trypan exclusion using a hemacytometer. The GI50 (concentration of drug that inhibits 50% of tumor cell growth when compared to tumor cells treated with same volume of DMSO) was determined for each cell line.

HCT116 = assay: as above; type: cell-based; details: HCT-116; HCT116 human colo-rectal carcinoma, 96 hours
Method: as §1

DU145 = assay: as above; type: cell-based; details: DU-145; DU145 human prostate carcinoma, 96 hours
Method: as §1

HT29 = assay: as above; type: cell-based; details: HT-29; HT29 human colo-rectal carcinoma, 96 hours
Method: as §1
The same protocol was used to compare the growth inhibitory activity of 4-bromobenzaldehyde-4-sulfamylphenylhydrazone and celecoxib against the human colo-rectal tumor cell line HT29. The data are plotted as the percent of viable cells remaining as compared to DMSO (non-treated) cells.

Compound: NS(=O)(=O)c1ccc(NN=Cc2ccc(F)cc2)cc1 [Example 2, 4-Fluorobenzaldehyde-4-sulfamylphenylhydrazone]
- Concentration Required for Complete DLD-1 Colony Growth Inhibition (DLD-1 cells): 30 µM

Compound: NS(=O)(=O)c1ccc(NN=Cc2ccc(Cl)cc2)cc1 [Example 3, 4-Chlorobenzaldehyde-4-sulfamylphenylhydrazone]
- Concentration Required for Complete DLD-1 Colony Growth Inhibition (DLD-1 cells): 20 µM

Compound: NS(=O)(=O)c1ccc(NN=Cc2ccc(Br)cc2)cc1 [Example 4, 4-Bromobenzaldehyde-4-sulfamylphenylhydrazone]
- Bioavailability (in words) ([1]; single dose 25 or 50 mg/kg intraperitoneal): high level of bioavailability
- concentration at 120 min ([1]; single dose 25 mg/kg intraperitoneal): 38 µg/mL
- concentration at 120 min ([1]; single dose 50 mg/kg intraperitoneal): 165 µg/mL
- Concentration Required for Complete DLD-1 Colony Growth Inhibition (DLD-1 cells): <20 µM
- Concentration Required for Complete DLD-1 Colony Growth Inhibition (DLD-1 cells; listed as Ex. 4): 20 µM
- Percent Survival of Mice (mice; 25 mg/kg intraperitoneal): 100%
- Percent Survival of Mice (mice; 50 mg/kg intraperitoneal): 100%
- Percent Survival of Mice (mice; 100 mg/kg intraperitoneal): 100%
- Percent Survival of Mice (mice; 200 mg/kg intraperitoneal): 100%
- Percent Survival of Mice (mice; 400 mg/kg intraperitoneal): 80%
- In vivo toxicity in mice (in words) (mice; intraperitoneal doses 25 to 400 mg/kg): very low mammalian toxicity
- GI50 (DLD-1): 30 µM
- GI50 (HCT116): 30 µM
- GI50 (DU145): 30 µM
- GI50 (HT29): 8 µM

Compound: COc1ccc(C=NNc2ccc(S(N)(=O)=O)cc2)cc1 [Example 9, 4-Methoxybenzaldehyde-4-sulfamylphenylhydrazone]
- Concentration Required for Complete DLD-1 Colony Growth Inhibition (DLD-1 cells): >75 µM

Compound: Cc1ccc(-c2cc(C(F)(F)F)nn2-c2ccc(S(N)(=O)=O)cc2)cc1 [celecoxib, reference compound]
- GI50 (HT29): 25 µM
